Experimental data taken from PubChem BioAssay AID1963423 (Molecular Pharmacology Branch, DTP, NCI, 2024).
Where “and” joins values, the source holds several entries; their conditions need not be identical. Identical values can stand only once.

Tested on: 439559-082-T-J2-PDC complex spheroid growth
Assay: Anticancer human tumor 439559-082-T-J2-PDC patient-derived colon adenocarcinoma cell line growth inhibition [Asc]
Details: for viability, T/C: stronger effect = lower value
Outline: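 Complex solid-tumor spheroids incorporating human endothelial and mesenchymal stem cells received single agents or combinations over half-log dilution ranges anchored to clinical Cmax.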
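Also: spheroids exposed to agents for 7 days starting day 3 after seeding.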
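For viability, T/C in this document: percent of DMSO vehicle control viability with 100% = vehicle.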

What does the source list for Cc1nc(N2CCC3(CC2)COC(C)C3N)c(CO)nc1Sc1ccnc(N)c1Cl (stereo unspecified) + CNC(C)C(=O)NC1CN(S(=O)(=O)c2cccc(S(=O)(=O)N3CCC4CCC(C(=O)NC(c5ccccc5)c5ccccc5)N4C(=O)C(NC(=O)C(C)NC)C3)c2)CCC2CCC(C(=O)NC(c3ccccc3)c3ccccc3)N2C1=O?
IC50 (curve of first compound, second compound 0.00316 µM): > 3000 nM; IC50 (curve of first compound, second compound 0.01 µM): > 3000 nM; IC50 (curve of first compound, second compound 0.0316 µM): > 3000 nM; IC50 (curve of first compound, second compound 0.1 µM): > 3000 nM; IC50 (curve of first compound, second compound 0.316 µM): > 3000 nM; IC50 (curve of first compound, second compound 1 µM): 2270 nM; viability, T/C (second compound 0.00316 µM, first compound 0.00949 µM): 98.2%; viability, T/C (second compound 0.00316 µM, first compound 0.03 µM): 91.5%; viability, T/C (second compound 0.00316 µM, first compound 0.0949 µM): 89.7%; viability, T/C (second compound 0.00316 µM, first compound 0.3 µM): 94%; viability, T/C (second compound 0.00316 µM, first compound 0.949 µM): 95.4%; viability, T/C (second compound 0.00316 µM, first compound 3 µM): 71.5%; viability, T/C (second compound 0.01 µM, first compound 0.00949 µM): 98.4%; viability, T/C (second compound 0.01 µM, first compound 0.03 µM): 104%; viability, T/C (second compound 0.01 µM, first compound 0.0949 µM): 95.3%; viability, T/C (second compound 0.01 µM, first compound 0.3 µM): 83%; viability, T/C (second compound 0.01 µM, first compound 0.949 µM): 87.3%; viability, T/C (second compound 0.01 µM, first compound 3 µM): 73.3%; viability, T/C (second compound 0.0316 µM, first compound 0.00949 µM): 104%; viability, T/C (second compound 0.0316 µM, first compound 0.03 µM): 98.8%; viability, T/C (second compound 0.0316 µM, first compound 0.0949 µM): 89.4%; viability, T/C (second compound 0.0316 µM, first compound 0.3 µM): 97.2%; viability, T/C (second compound 0.0316 µM, first compound 0.949 µM): 75.8%; viability, T/C (second compound 0.0316 µM, first compound 3 µM): 69.5%; viability, T/C (second compound 0.1 µM, first compound 0.00949 µM): 93.7%; viability, T/C (second compound 0.1 µM, first compound 0.03 µM): 96.7%; viability, T/C (second compound 0.1 µM, first compound 0.0949 µM): 95.5%; viability, T/C (second compound 0.1 µM, first compound 0.3 µM): 84.2%; viability, T/C (second compound 0.1 µM, first compound 0.949 µM): 81.3%; viability, T/C (second compound 0.1 µM, first compound 3 µM): 64.8%; viability, T/C (second compound 0.316 µM, first compound 0.00949 µM): 94.4%; viability, T/C (second compound 0.316 µM, first compound 0.03 µM): 88.1%; viability, T/C (second compound 0.316 µM, first compound 0.0949 µM): 79%; viability, T/C (second compound 0.316 µM, first compound 0.3 µM): 72.1%; viability, T/C (second compound 0.316 µM, first compound 0.949 µM): 67%; viability, T/C (second compound 0.316 µM, first compound 3 µM): 59.9%; viability, T/C (second compound 1 µM, first compound 0.00949 µM): 72.9%; viability, T/C (second compound 1 µM, first compound 0.03 µM): 76.8%; viability, T/C (second compound 1 µM, first compound 0.0949 µM): 69.3%; viability, T/C (second compound 1 µM, first compound 0.3 µM): 62.9%; viability, T/C (second compound 1 µM, first compound 0.949 µM): 66.6%; viability, T/C (second compound 1 µM, first compound 3 µM): 45%

For COc1c(OCCCN2CCOCC2)ccc2c3n(c(=NC(=O)c4cnc(N)nc4)nc12)CCN3, which viability, T/C (compound 0.00316 µM) is on record?
Its viability, T/C is 100% and 101% and 93.5%.

What about the viability, T/C (compound 0.01 µM) of the same compound?
The viability, T/C was 104% (2×) and 90.9%.

And the viability, T/C (compound 0.0316 µM)?
The viability, T/C was 81.6% and 87.4% and 102%.

What about the viability, T/C (compound 0.1 µM) of the same compound?
The viability, T/C was 78.7% and 76.9% and 72.9%.

And the viability, T/C (compound 0.316 µM)?
Its viability, T/C is 80% and 71.6% and 75.5%.

What about the viability, T/C (compound 1 µM) of the same compound?
The viability, T/C was 58.6% and 59% and 69.4%.

And the IC50 (curve of compound)?
The IC50 was over 1000 nM.

What does the source list for O=C(c1ccc(F)c(F)c1Nc1ccc(I)cc1F)N1CC(O)([C@@H]2CCCCN2)C1?
viability, T/C (compound 0.00316 µM): 101% and 106% (2×); viability, T/C (compound 0.01 µM): 95.1% and 106% and 95.4%; viability, T/C (compound 0.0316 µM): 96.9% and 81.6% and 88.7%; viability, T/C (compound 0.1 µM): 63.6% and 60.9% and 69.5%; viability, T/C (compound 0.316 µM): 58% and 50.6% and 49.3%; viability, T/C (compound 1 µM): 13.8% and 24.2% and 28.6%; IC50 (curve of compound): 334 nM and 240 nM and 307 nM
